Test results: patent US8729023B2 (priority 2002, dated 2014)
Values joined by “and” are separate entries in the source; they are usually repeats but may differ in a detail not shown here. Equal values may be shown once.

How the values were obtained:
[1] = test system: breast tissue of cancer-free and breast tumor-bearing rats; experiment: Effect of BQ788 on ET-1-induced changes in perfusion, CMBC and velocity of blood cells in breast tissue; type: in vivo, rat
[2] = Effect of ET-1 infusion on systemic hemodynamics, radioactive microsphere technique; type: in vivo, rat; conditions: ET-1 50 ng/kg/min infusion for 30 minutes
[3] = test system: breast tissue of cancer-free and breast tumor-bearing rats; experiment: Effect of ET-1 infusion on blood flow and regional vascular resistance in breast tissue, microspheres; type: in vivo, rat
[4] = test system: breast tissue of cancer-free and breast tumor-bearing rats; experiment: Effect of ET-1 on perfusion, CMBC and velocity of blood cells in breast tissue, laser Doppler flowmetry; type: in vivo, rat
Experimental: MNU and saline treatments were performed as i.p. injections three months prior to the studies. Rats were palpated regularly starting four weeks after the treatments. Once tumors reached about 4-8 mm in diameter, experiments were initiated.
Rats were initially divided into two groups, each receiving one of the following treatments: • Group I: ET-1 (50 ng/kg/min) infusion for 30 minutes in rats treated with saline (normal rats) (N=6); and • Group II: ET-1 (50 ng/kg/min) infusion for 30 minutes in treated with MNU (50 mg/kg, i.p.; tumor rats) (N=6).
Systemic hemodynamic and regional circulation parameters were determined at baseline, 30, 60, and 120 minutes after starting ET-1 (50 ng/kg/min) infusion.
Blood perfusion to the mammary gland of the rats was measured using laser Doppler flowmetry. See Song et al., Int J Radiat Oncol Biol Phys, 18:903 (1990); Song et al., Int J Radiat Oncol Biol Phys, 17:1041 (1989). The animals were shaved around the nipples. The skin surrounding the mammary glands was dissected out as a lambeau about 6 cm wide and about 4 cm long. A standard model fiber optic probe was applied to the surface of the lambeau, and secured to the tissue by double stick tape. The lambeau was placed in a metal holder and taped down to prevent movement, then connected to a Periflux PF2b 4000 Laser Doppler Flowmetry (Perimed K B, Stockholm, Sweden). The time constant was set at 1.5 seconds and the bandwidth was set at 4 KHz. Data were analyzed using analysis of variance followed by Duncan's test. A level of p<0.05 was considered significant.

[5] = rat, in vivo
[6] = test system: MNU-induced breast tumors; conditions: rat, in vivo
[7] = test system: human melanoma cells (UISO-MEL-2) tumor; conditions: nude, mouse, in vivo
in vivo = conditions: female, Sprague Dawley, rat
[8] = test system: JHU-4 (MAT-LyLu) prostate tumor; conditions: rat, in vivo
[9] = tumor-bearing rats, at 30 minutes
[10] = tumor-bearing rats, at 60 minutes
[11] = tumor-bearing rats, at 120 minutes
[12] = normal saline-treated rats, ET-1 50 ng/kg/min infusion for 30 minutes
[13] = female, Sprague Dawley, iv, 3 nmol/kg

## CCCC[C@@H](NC(=O)[C@@H](Cc1cn(C(=O)OC)c2ccccc12)NC(=O)[C@H](CC(C)(C)C)NC(=O)N1[C@H](C)CCC[C@@H]1C)C(=O)O [BQ788, N-cis-2,6-dimethylpiperidinocarbonyl-L-gamma-methyll-eucyl-D-1-methoxycarbonyltrptophanyl-D-Nle]
[1]; after BQ788 infusion
  CMBC of tumor-bearing versus normal rats: no difference
  velocity of RBC, tumor-bearing versus normal rats: no difference
[1]; following ET-1 administration in BQ788 pretreated rats
  perfusion in breast tissue of tumor-bearing rats versus normal rats: No difference
[1]; normal rats, BQ788 0.5 μmol/kg infusion for 20 minutes followed by ET-1 50 ng/kg/min for 30 minutes
  blood perfusion in the breast tissue: did not change significantly
[1]; tumor-bearing rats
  effect of pretreatment on the increase in perfusion induced by ET-1: attenuated

## CC[C@H](C)[C@H](NC(=O)[C@H](CC(=O)O)NC(=O)[C@H](CC(C)C)NC(=O)[C@H](Cc1c[nH]cn1)NC(=O)[C@@H]1CSSC[C@H](N)C(=O)N[C@@H](CO)C(=O)N[C@H]2CSSC[C@H](NC(=O)[C@H](CCC(=O)O)NC(=O)[C@H](CCCCN)NC(=O)[C@H](CC(=O)O)NC(=O)[C@H](CCSC)NC(=O)[C@H](CC(C)C)NC(=O)[C@H](CO)NC(=O)[C@H](CO)NC2=O)C(=O)N[C@@H](C(C)C)C(=O)N[C@@H](Cc2ccc(O)cc2)C(=O)N[C@@H](Cc2ccccc2)C(=O)N1)C(=O)N[C@H](C(=O)N[C@@H](Cc1c[nH]c2ccccc12)C(=O)O)[C@@H](C)CC [ET-1]
[2]; normal rats
  change in HR: No significant change
[2]; normal rats, at 30 minutes
  increase in MAP: 14.5%
[2]; normal rats, at 60 minutes
  CO decrease: 22.9%
  SV decrease: 20.9%
[2]; normal rats, at 120 minutes
  CO decrease: 42.5%
  SV decrease: 36%
  TPR increase: 49.2%
  decrease in MAP: 17.8%
[2]; tumor-bearing (MNU treated) rats, at 30 minutes
  increase in MAP: 19.1%
[2]; tumor-bearing (MNU treated) rats, at 60 minutes
  increase in MAP: 15.3%
[2]; tumor-bearing rats
  change in HR: No change
[2]; [9]
  CO decrease: 29.4%
  SV decrease: 31.1%
  TPR increase: 73.9%
[2]; [10]
  CO decrease: 16.7%
  SV decrease: 17.9%
  TPR increase: 39.7%
[2]; [11]
  CO decrease: 36.1%
  SV decrease: 32.1%
  TPR increase: 71.4%
[3]; at 60 minutes following ET-1 administration
  vascular resistance in tumor-bearing rats, difference compared to normal rats: 147%
[3]; at 60 minutes following administration of ET-1 50 ng/kg/min
  increase in blood flow to the breast tissue of tumor-bearing rats as compared to normal rats: 153%
[3]; [12]
  change in blood flow to the breast tissue: No significant change
  change in vascular resistance in breast tissue: No significant change
[4]; 120 minutes after ET-1 administration
  velocity of RBC in tumor-bearing rats: returned to baseline
[4]; at 60 and 120 minutes following ET-1 administration
  perfusion in the breast tissue of tumor-bearing rats: returned to baseline
[4]; at 30 minutes following ET-1 administration
  perfusion in the breast tissue of tumor-bearing rats, increase compared to normal rats: 176%
[4]; at 60 minutes post ET-1 administration
  CMBC in tumor-bearing rats, increase as compared to normal rats: 54%
[4]; at 120 minutes after ET-1 administration
  CMBC in tumor-bearing rats: returned to baseline
[4]; normal rats, after ET-1 50 ng/kg/min infusion
  blood perfusion in the breast tissue: did not significantly change
[4]; tumor-bearing rats, at 30 minutes post ET-1 administration
  velocity of RBC, increase compared to normal rats: 252%

## CC(=O)O[C@H]1C(=O)[C@@]2(C)[C@H]([C@H](OC(=O)c3ccccc3)[C@]3(O)C[C@H](OC(=O)[C@H](O)[C@@H](NC(=O)c4ccccc4)c4ccccc4)C(C)=C1C3(C)C)[C@]1(OC(C)=O)CO[C@@H]1C[C@@H]2O [paclitaxel]
[5]; female, Sprague Dawley
  K10: 3.14 ± 1.34
  K12: 56.47 ± 27.69
  K13: 5.71 ± 3.37
  βt½: 1.0 ± 0.32 h
  γt½: 25.87 ± 17.81 h
[5]; female, Sprague Dawley, iv
  AUC of paclitaxel: 9433.53 ± 1465.00 ng·h/mL
  elimination half-life of paclitaxel: 8.4 ± 4.8 min
[5]; [13]
  AUC0-∞: 9430 ± 1470 ng·h/mL
  Cl: 9.33 ± 1.2 mL/min/kg
  Vss: 8.14 ± 2.95 L/kg
  α t1/2: 0.03 ± 0.01
  β t1/2: 1.0 ± 0.32
  γ t1/2: 25.87 ± 17.81
[5]
  clearance calculated as Dose/AUC: 9.33 ± 1.2 mL/min/kg
[6]
  percent of tumors progressed: 71.4% and 61.1%
  percent of tumors regressing in size: 9.5%
  percent of tumors remaining in stasis: 22.2% and 19.5%
  reduction in tumor volume as compared to control rats: 60.0%
  regression (FIG. 13): 33.8±19.4%
  tumor multiplicity, new tumor occurrence: 78.3% and 41%
  tumor regression rate: 37.7±16.2%
  tumor volume: 1960.8±611.9 mm^3 and 1682.7±497.3 mm^3
  tumors regressed compared to control rats: 45.9±11.5%
[7]
  tumor [^3H]paclitaxel concentration: 40.77 nmol/g tissue
In vivo
  MRT: 27.9 ± 19.8 h
  half-life: 1.8 ± 0.6 min
In vivo; iv, 3 nmol/kg
  Cmax: 6730 ± 540 ng/mL
  MRT: 27.9 ± 19.8 h
  MRT inf: 17.4 ± 8.13 h
In vivo; iv, 3 nmol/kg, AUC0-∞
  AUC(0-inf): 9420 ± 3180 ng·h/mL
In vivo; iv, 3 nmol/kg, Cl
  clearance: 11.5 mL/min/kg
In vivo; iv, 3 nmol/kg, Vd
  Vd: 10.1 ± 4.18 L/kg
In vivo; iv, 3 nmol/kg, Vss
  Vd: 10.3 ± 4.54 L/kg

## COc1cccc2c1C(=O)c1c(O)c3c(c(O)c1C2=O)C[C@@](O)(C(=O)CO)C[C@@H]3O[C@H]1C[C@H](N)[C@H](O)[C@H](C)O1 [saline+DOX, doxorubicin]
[8]
  maximum decrease in body weight: −8.46±3.88
